Reference: patent US20260262643A1, “HERBICIDAL BENZOXAZINES” (FMC CORPORATION, priority 2022, published 2026)

What was measured:
ragweed [1] = assay: Test C postemergence; format: in vivo, Ambrosia artemisiifolia; details: 10 days, 0 to 100 scale (0 no effect, 100 complete control)
Procedure, shortened: (§1)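 Seeds sown in loam soil–sand blend received a directed preemergence soil spray of test chemical in non-phytotoxic solvent with surfactant; postemergence plants (2–10 cm, one- to two-leaf stage) were sprayed with the same formulation. Greenhouse-held 10 days, then visually rated for injury versus untreated controls, 0 (no effect) to 100 (complete control).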

corn [2] = assay: Test C preemergence; format: in vivo, Zea mays
Procedure, shortened: as §1

sedge, umbrella = assay: Test D flooded paddy test; format: in vivo, Cyperus difformis; details: 250 g ai/ha, applied to paddy water, visual rating after 13 to 14 days, scale 0 to 100 (0 no effect, 100 complete control)
Procedure, shortened: (§2)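 Seedlings reached the 2-leaf stage, then pots were flooded to 3 cm over the soil surface. Compound was applied into the water, depth was maintained, and plants stayed in the greenhouse 13 to 14 days before visual scoring (0–100) relative to controls.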

wheat [3] = assay: Test C postemergence; format: in vivo, Triticum aestivum; details: 10 days, 0 to 100 scale (0 no effect, 100 complete control)
Procedure, shortened: as §1

blackgrass [4] = assay: Test C postemergence; format: in vivo, Alopecurus myosuroides; details: 10 days, 0 to 100 scale (0 no effect, 100 complete control)
Procedure, shortened: as §1

oat, wild [5] = assay: Test C preemergence; format: in vivo, Avena fatua
Procedure, shortened: as §1

oat, wild [6] = assay: Test C postemergence; format: in vivo, Avena fatua; details: 10 days, 0 to 100 scale (0 no effect, 100 complete control)
Procedure, shortened: as §1

pigweed, palmer [7] = assay: Test C preemergence; format: in vivo, Amaranthus palmeri
Procedure, shortened: as §1

rice = assay: Test D flooded paddy test; format: in vivo, Oryza sativa; details: 250 g ai/ha, applied to paddy water, visual rating after 13 to 14 days, scale 0 to 100 (0 no effect, 100 complete control)
Procedure, shortened: as §2

ryegrass, Italian [8] = assay: Test C preemergence; format: in vivo, Lolium multiflorum
Procedure, shortened: as §1

barnyardgrass [9] = assay: Test C postemergence; format: in vivo, Echinochloa crusgalli; details: 10 days, 0 to 100 scale (0 no effect, 100 complete control)
Procedure, shortened: as §1

corn [10] = assay: Test C postemergence; format: in vivo, Zea mays; details: 10 days, 0 to 100 scale (0 no effect, 100 complete control)
Procedure, shortened: as §1

kochia [11] = assay: Test C postemergence; format: in vivo, Bassia scoparia; details: 10 days, 0 to 100 scale (0 no effect, 100 complete control)
Procedure, shortened: as §1

soybean [12] = assay: Test C postemergence; format: in vivo, Glycine max; details: 10 days, 0 to 100 scale (0 no effect, 100 complete control)
Procedure, shortened: as §1

ducksalad = assay: Test D flooded paddy test; format: in vivo, Heteranthera limosa; details: 250 g ai/ha, applied to paddy water, visual rating after 13 to 14 days, scale 0 to 100 (0 no effect, 100 complete control)
Procedure, shortened: as §2

wheat [13] = assay: Test C preemergence; format: in vivo, Triticum aestivum
Procedure, shortened: as §1

barnyardgrass [14] = assay: Test C preemergence; format: in vivo, Echinochloa crusgalli
Procedure, shortened: as §1

barnyardgrass [15] = assay: Test D flooded paddy test; format: in vivo, Echinochloa crus-galli; details: 250 g ai/ha, applied to paddy water, visual rating after 13 to 14 days, scale 0 to 100 (0 no effect, 100 complete control)
Procedure, shortened: as §2

galium = assay: Test C postemergence; format: in vivo, Galium aparine; details: 10 days, 0 to 100 scale (0 no effect, 100 complete control)
Procedure, shortened: as §1

green foxtail [16] = assay: Test C postemergence; format: in vivo, Setaria viridis; details: 10 days, 0 to 100 scale (0 no effect, 100 complete control)
Procedure, shortened: as §1

horseweed = assay: Test C postemergence; format: in vivo, Erigeron canadensis; details: 10 days, 0 to 100 scale (0 no effect, 100 complete control)
Procedure, shortened: as §1

soybean [17] = assay: Test C preemergence; format: in vivo, Glycine max
Procedure, shortened: as §1

green foxtail [18] = assay: Test C preemergence; format: in vivo, Setaria viridis
Procedure, shortened: as §1

blackgrass [19] = assay: Test C preemergence; format: in vivo, Alopecurus myosuroides
Procedure, shortened: as §1

ryegrass, Italian [20] = assay: Test C postemergence; format: in vivo, Lolium multiflorum; details: 10 days, 0 to 100 scale (0 no effect, 100 complete control)
Procedure, shortened: as §1

ragweed [21] = assay: Test C preemergence; format: in vivo, Ambrosia artemisiifolia
Procedure, shortened: as §1

kochia [22] = assay: Test C preemergence; format: in vivo, Bassia scoparia
Procedure, shortened: as §1

pigweed, palmer [23] = assay: Test C postemergence; format: in vivo, Amaranthus palmeri; details: 10 days, 0 to 100 scale (0 no effect, 100 complete control)
Procedure, shortened: as §1

[24] = 500 g ai/ha, preemergence, 0 to 100 scale (0 no effect, 100 complete control)
[25] = Preemergence, 125 g ai/ha, 0 to 100 scale, 0 no effect, 100 complete control

Structure (SMILES): CNc1ncn(-c2cccc(C(=O)N3C[C@H](C)Oc4c(C)cccc43)c2)n1 [Compound 337]
- Plant response rating, Ragweed (ragweed [1]; 500 g ai/ha, postemergence): 60
- Plant response rating, Ragweed (ragweed [1]; Postemergence, 125 g ai/ha): 20
- Corn plant response rating (corn [2]; [24]): 40
- Plant response rating, Corn (corn [2]; [25]): 0
- Plant response rating, Sedge, Umbrella (Flood) (sedge, umbrella): 0
- Plant response rating, Wheat (wheat [3]; 500 g ai/ha, postemergence): 20
- Plant response rating, Wheat (wheat [3]; Postemergence, 125 g ai/ha): 10
- Plant response rating, Blackgrass (blackgrass [4]; 500 g ai/ha, postemergence): 90
- Plant response rating, Blackgrass (blackgrass [4]; Postemergence, 125 g ai/ha): 40
- Oat, Wild plant response rating (oat, wild [5]; [24]): 20
- Plant response rating, Oat, Wild (oat, wild [5]; [25]): 0
- Plant response rating, Oat, Wild (oat, wild [6]; 500 g ai/ha, postemergence): 30
- Plant response rating, Oat, Wild (oat, wild [6]; Postemergence, 125 g ai/ha): 10
- Pigweed, Palmer plant response rating (pigweed, palmer [7]; [24]): 100
- Plant response rating, Pigweed, Palmer (pigweed, palmer [7]; [25]): 0
- Plant response rating, Rice (Flood) (rice): 0
- Ryegrass, Italian plant response rating (ryegrass, Italian [8]; [24]): 90
- Plant response rating, Ryegrass, Italian (ryegrass, Italian [8]; [25]): 50
- Plant response rating, Barnyardgrass (barnyardgrass [9]; 500 g ai/ha, postemergence): 60
- Plant response rating, Barnyardgrass (barnyardgrass [9]; Postemergence, 125 g ai/ha): 10
- Plant response rating, Corn (corn [10]; 500 g ai/ha, postemergence): 60
- Plant response rating, Corn (corn [10]; Postemergence, 125 g ai/ha): 10
- Plant response rating, Kochia (kochia [11]; 500 g ai/ha, postemergence): 70
- Plant response rating, Kochia (kochia [11]; Postemergence, 125 g ai/ha): 50
- Plant response rating, Soybean (soybean [12]; 500 g ai/ha, postemergence): 100
- Plant response rating, Soybean (soybean [12]; Postemergence, 125 g ai/ha): 90
- Plant response rating, Ducksalad (Flood) (ducksalad): 0
- Wheat plant response rating (wheat [13]; [24]): 10
- Plant response rating, Wheat (wheat [13]; [25]): 0
- Barnyardgrass plant response rating (barnyardgrass [14]; [24]): 90
- Plant response rating, Barnyardgrass (barnyardgrass [14]; [25]): 30
- Plant response rating, Barnyardgrass (Flood) (barnyardgrass [15]): 0
- Plant response rating, Galium (galium; 500 g ai/ha, postemergence): 90
- Plant response rating, Galium (galium; Postemergence, 125 g ai/ha): 40
- Plant response rating, Foxtail, Green (green foxtail [16]; 500 g ai/ha, postemergence): 40
- Plant response rating, Foxtail, Green (green foxtail [16]; Postemergence, 125 g ai/ha): 30
- Plant response rating, Horseweed (horseweed; 500 g ai/ha, postemergence): 20
- Plant response rating, Horseweed (horseweed; Postemergence, 125 g ai/ha): 0
- Soybean plant response rating (soybean [17]; [24]): 40
- Plant response rating, Soybean (soybean [17]; [25]): 0
- Foxtail, Green plant response rating (green foxtail [18]; [24]): 100
- Plant response rating, Foxtail, Green (green foxtail [18]; [25]): 90
- Blackgrass plant response rating (blackgrass [19]; [24]): 50
- Plant response rating, Blackgrass (blackgrass [19]; [25]): 20
- Plant response rating, Ryegrass, Italian (ryegrass, Italian [20]; 500 g ai/ha, postemergence): 70
- Plant response rating, Ryegrass, Italian (ryegrass, Italian [20]; Postemergence, 125 g ai/ha): 20
- Ragweed plant response rating (ragweed [21]; [24]): 50
- Plant response rating, Ragweed (ragweed [21]; [25]): 30
- Kochia plant response rating (kochia [22]; [24]): 80
- Plant response rating, Kochia (kochia [22]; [25]): 0
- Plant response rating, Pigweed, Palmer (pigweed, palmer [23]; 500 g ai/ha, postemergence): 70
- Plant response rating, Pigweed, Palmer (pigweed, palmer [23]; Postemergence, 125 g ai/ha): 20
